Each compound was assayed against T1, human MDM2 protein (amino acids 2-188) (Homo sapiens, UniProt Q00987) (assay: p53-MDM2 TR-FRET assay (p53-MDM2 Assay 1)). Conditions: 1.25 nM MDM2-biotinylated, 10 nM Cy5-p53 peptide; read-out: IC50 (μM) of p53-Hdm2 inhibition (TR-FRET) Assay 1.
T1 construct: human MDM2 protein (amino acids 2-188); made in house
Assay type: binding
Method in brief: (§1)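 Peptide displacement read as 665/620 nm TR-FRET ratio (excitation 340 nm) after 15 min room temperature with 10 nM Cy5-p53 aa18-26, following 15 min preincubation of Eu-streptavidin (0.625 nM) with biotinylated MDM4 aa 2-185 (2.5 nM) or MDM2 aa 2-188 (1.25 nM); IC50 curve-fitted. MDM2 Assay 2: MDM2 and Eu-streptavidin each 0.1 nM.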

T1 sequence (Q00987 2-188): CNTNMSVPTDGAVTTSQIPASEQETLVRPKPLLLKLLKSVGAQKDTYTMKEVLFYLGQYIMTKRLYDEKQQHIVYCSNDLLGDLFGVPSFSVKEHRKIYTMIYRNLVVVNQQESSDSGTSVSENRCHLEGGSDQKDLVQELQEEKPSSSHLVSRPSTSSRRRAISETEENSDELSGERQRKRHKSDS

Structure (SMILES) | IC50 [µM]
COc1cc2c(cc1OC(C)C)[C@H](c1ccc(Cl)cc1)N(c1ccc([C@](C)(O)C3CCS(=O)(=O)CC3)cc1)C(=O)C2 [Example 167, (S)-1-(4-Chloro-phenyl)-2-{4-[(R)-1-(1,1-dioxo-hexahydro-1-thiopyran-4-yl)-1-hydroxy-ethyl]-phenyl}-7-isopropoxy-6-methoxy-1,4-dihydro-2H-isoquinolin-3-one] | 0.125
COc1cc2c(cc1OC(C)C)[C@H](c1ccc(Cl)cc1)N(c1ccc(C(C)(O)C3CC[S+]([O-])CC3)cc1)C(=O)C2 (stereo partly drawn) [Example 169, (S)-1-(4-Chloro-phenyl)-2-{4-[1-hydroxy-1-(1-oxo-hexahydro-1-thiopyran-4-yl)-ethyl]-phenyl}-7-isopropoxy-6-methoxy-1,4-dihydro-2H-isoquinolin-3-one] | 0.0096
COc1cc2c(cc1OC(C)C)[C@H](c1ccc(Cl)cc1)N(c1ccc([C@](C)(O)C3CC[S+]([O-])CC3)cc1)C(=O)C2 (stereo partly drawn) [Example 170, (S)-1-(4-Chloro-phenyl)-2-{4-[(R)-1-hydroxy-1-(1-oxo-hexahydro-thiopyran-4-yl)-ethyl]-phenyl}-7-isopropoxy-6-methoxy-1,4-dihydro-2H-isoquinolin-3-one] | 0.168
COc1cc2c(cc1OC(C)C)[C@H](c1ccc(Cl)cc1)N(c1ccc([C@@](C)(O)C3CC[S+]([O-])CC3)cc1)C(=O)C2 (stereo partly drawn) [Example 171, (S)-1-(4-Chloro-phenyl)-2-{4-[(S)-1-hydroxy-1-(1-oxo-hexahydro-1-thiopyran-4-yl)-ethyl]-phenyl}-7-isopropoxy-6-methoxy-1,4-dihydro-2H-isoquinolin-3-one] | 0.0031
COc1cc2c(cc1OC(C)C)[C@H](c1ccc(Cl)cc1)N(c1ccc([C@](C)(O)C3CC4CCC(C3)S4(=O)=O)cc1)C(=O)C2 (stereo partly drawn) [Example 173, (S)-1-(4-Chloro-phenyl)-2-{4-[(R)-1-(8,8-dioxo-8-thia-bicyclo[3.2.1]oct-3-yl)-1-hydroxy-ethyl]-phenyl}-7-isopropoxy-6-methoxy-1,4-dihydro-2H-isoquinolin-3-one] | 0.0943

The compounds below were run against T1, human MDM2 protein (amino acids 2-188) (assay: p53-MDM2 TR-FRET assay, modified (p53-MDM2 Assay 2)). Conditions: 0.1 nM MDM2, 0.1 nM Europium labeled streptavidin; read-out: IC50 (nM) of p53-Hdm2 inhibition (TR-FRET) Assay 2.
Assay type: binding
Protocol: Time Resolved Fluorescence Energy Transfer (TR-FRET) Assay
The inhibition of p53-MDM2 and p53-MDM4 interactions is measured by time resolved fluorescence energy transfer (TR-FRET). Fluorescence energy transfer (or Foerster resonance energy transfer) describes an energy transfer between donor and acceptor fluorescent molecules. For this assay, human MDM2 protein (amino acids 2-188) and human MDM4 protein (amino acids 2-185), tagged with a C-terminal biotin moiety, are used in combination with a Europium labeled streptavidin (Perkin Elmer, Inc., Waltham, Mass., USA) serving as the donor fluorophore. The p53 derived, Cy5 labeled peptide Cy5-TFSDLWKLL (p53 aa18-26) is the energy acceptor. Upon excitation of the donor molecule at 340 nm, binding interaction between MDM2 or MDM4 and the p53 peptide induces energy transfer and enhanced response at the acceptor emission wavelength at 665 nm. Disruption of the formation of the p53-MDM2 or p53-MDM4 complex due to an inhibitor molecule binding to the p53 binding site of MDM2 or MDM4 results in increased donor emission at 620 nm. The ratiometric FRET assay readout is calculated from the raw data of the two distinct fluorescence signals measured in time resolved mode (fluorescence 665 nm/fluorescence 620 nm×1000).
After addition of 1.25 nM MDM2-biotinylated or 2.5 nM MDM4-biotinylated (internal preparations), and 0.625 nM Europium labeled streptavidin (Perkin Elmer), the solution is pre-incubated for 15 minutes at room temperature, then 10 nM Cy5-p53 peptide (internal preparation) is added before an incubation at room temperature for 15 minutes prior to reading the plate. For measurement of samples, a Victor II microplate reader (Perkin Elmer) is used with the following settings: Excitation 340 nm, Emission Donor 620 nm and Emission Acceptor 665 nm. IC50 values are calculated by curve fitting using XLfit. If not specified, reagents are purchased from Sigma-Aldrich Chemie GmBH, Buchs, Switzerland.
This assay was used to evaluate compounds displaying inhibition of p53-MDM2 interaction and p53-MDM4 interaction at IC50s of 0.005 to 50 μM (p53-MDM2 Assay 1 and p53-MDM4 Assay 1, respectively). For selected compounds displaying IC50s between […] on MDM2, a slightly modified assay is used with the following adaptations: 0.1 nM MDM2, 0.1 nM Europium labeled streptavidin and Tecan genios Pro is used as a microplate reader for the fluorescence measurements (p53-MDM2 Assay 2).

Structure (SMILES) | IC50 [nM]
[2H]C([2H])([2H])Oc1cc2c(cc1OC(C)C)[C@H](c1ccc(Cl)cc1)N(c1ccc(C(C)(O)C3CCS(=O)(=O)CC3)cc1)C(=O)C2 (mixture of isomers) [Example 150, (S)-1-(4-Chloro-phenyl)-2-{4-[1-(1,1-dioxo-hexahydro-1-thiopyran-4-yl)-1-hydroxy-ethyl]-phenyl}-7-isopropoxy-6-d^3-methoxy-1,4-dihydro-2H-isoquinolin-3-one] | 4.43
COc1cc2c(cc1OC(C)C)[C@H](c1ccc(Cl)cc1)N(c1ccc([C@](C)(O)C3CCN(C=O)CC3)cc1)C(=O)C2 (single isomer, unassigned) [Example 124] | 150
COc1cc2c(cc1OC(C)C)[C@H](c1ccc(Cl)cc1)N(c1ccc([C@@](C)(O)C3CCN(C=O)CC3)cc1)C(=O)C2 (single isomer, unassigned) [Example 125] | 0.746
COc1cc2c(cc1OC(C)C)[C@H](c1ccc(Cl)cc1)N(c1ccc([C@](C)(O)C3CCN(C4COC4)CC3)cc1)C(=O)C2 (single isomer, unassigned) [Example 126] | 58.6
COc1cc2c(cc1OC(C)C)[C@H](c1ccc(Cl)cc1)N(c1ccc([C@@](C)(O)C3CCN(C4COC4)CC3)cc1)C(=O)C2 (single isomer, unassigned) [Example 127] | 0.935
COc1cc2c(cc1OC(C)C)[C@H](c1ccc(Cl)cc1)N(c1ccc([C@@](C)(O)C3CCN(C(=O)COC(C)=O)CC3)cc1)C(=O)C2 (single isomer, unassigned) [Example 128] | 1.34
COc1cc2c(cc1OC(C)C)[C@H](c1ccc(Cl)cc1)N(c1ccc([C@](C)(O)C3CCN(C(=O)COC(C)=O)CC3)cc1)C(=O)C2 (single isomer, unassigned) [Example 129] | 99.8
COc1cc2c(cc1OC(C)C)[C@H](c1ccc(Cl)cc1)N(c1ccc([C@@](C)(O)C3CCN(CCO)CC3)cc1)C(=O)C2 (single isomer, unassigned) [Example 131] | 1.42
COc1cc2c(cc1OC(C)C)[C@H](c1ccc(Cl)cc1)N(c1ccc([C@](C)(O)C3CCN(CCO)CC3)cc1)C(=O)C2 (single isomer, unassigned) [Example 132] | 25.3
COc1cc2c(cc1OC(C)C)[C@H](c1ccc(Cl)cc1)N(c1ccc([C@@](C)(O)C3CCN(C(=O)CO)CC3)cc1)C(=O)C2 (single isomer, unassigned) [Example 133] | 1.62
COc1cc2c(cc1OC(C)C)[C@H](c1ccc(Cl)cc1)N(c1ccc([C@](C)(O)C3CCN(C(=O)CO)CC3)cc1)C(=O)C2 (single isomer, unassigned) [Example 134] | 141
COc1cc2c(cc1OC(C)C)[C@H](c1ccc(Cl)cc1)N(c1ccc([C@@](C)(O)C34CCC(CC3)C4)cc1)C(=O)C2 (single isomer, unassigned) [Example 139] | 2.72
COc1cc2c(cc1OC(C)C)[C@H](c1ccc(Cl)cc1)N(c1ccc([C@](C)(O)C34CCC(CC3)C4)cc1)C(=O)C2 (single isomer, unassigned) [Example 140] | 305
[2H]C([2H])([2H])Oc1cc2c(cc1OC(C)C)[C@H](c1ccc(Cl)cc1)N(c1ccc([C@](C)(O)C3CCS(=O)(=O)CC3)cc1)C(=O)C2 (single isomer, unassigned) [Example 152] | 152
[2H]C([2H])([2H])Oc1cc2c(cc1OC(C)C)[C@H](c1ccc(Cl)cc1)N(c1ccc([C@@](C)(O)C3CCS(=O)(=O)CC3)cc1)C(=O)C2 (single isomer, unassigned) [Example 153] | 3.16
[2H]C([2H])([2H])Oc1cc2c(cc1OC(C)C)[C@H](c1ccc(Cl)cc1)N(c1ccc([C@](C)(O)C3CCN(C=O)CC3)cc1)C(=O)C2 (single isomer, unassigned) [Example 154] | 78.7
[2H]C([2H])([2H])Oc1cc2c(cc1OC(C)C)[C@H](c1ccc(Cl)cc1)N(c1ccc([C@@](C)(O)C3CCN(C=O)CC3)cc1)C(=O)C2 (single isomer, unassigned) [Example 155] | 1.23
COc1cc2c(cc1OC(C)C)[C@H](c1ccc(Cl)cc1)N(c1ccc([C@@](C)(O)C3CC4CCC(C3)O4)cc1)C(=O)C2 (single isomer, unassigned) [Example 159] | 0.894
COc1cc2c(cc1OC(C)C)[C@H](c1ccc(Cl)cc1)N(c1ccc([C@](C)(O)C3CC4CCC(C3)O4)cc1)C(=O)C2 (single isomer, unassigned) [Example 160] | 41.9
COc1cc2c(cc1OC(C)C)[C@H](c1ccc(Cl)cc1)N(c1ccc([C@@](C)(O)C3CC(C)(C)OC(C)(C)C3)cc1)C(=O)C2 (single isomer, unassigned) [Example 163] | 1.26
COc1cc2c(cc1OC(C)C)[C@H](c1ccc(Cl)cc1)N(c1ccc([C@](C)(O)C3CC(C)(C)OC(C)(C)C3)cc1)C(=O)C2 (single isomer, unassigned) [Example 164] | 509
COc1cc2c(cc1OC(C)C)[C@H](c1ccc(Cl)cc1)N(c1ccc(C(C)(O)C3CN(C4COC4)C3)cc1)C(=O)C2 (stereo partly drawn) [Example 103, (S)-1-(4-Chloro-phenyl)-2-{4-[1-hydroxy-1-(1-oxetan-3-yl-azetidin-3-yl)-ethyl]-phenyl}-7-isopropoxy-6-methoxy-1,4-dihydro-2H-isoquinolin-3-one] | 9.18

Each compound was assayed against T2, human MDM4 protein (amino acids 2-185) (Homo sapiens, UniProt O15151) (assay: p53-MDM4 TR-FRET assay (p53-MDM4 Assay 1)). Conditions: 2.5 nM MDM4-biotinylated, 10 nM Cy5-p53 peptide; read-out: IC50 (μM) of p53-Hdm4 inhibition (TR-FRET) Assay 1.
T2 construct: human MDM4 protein (amino acids 2-185); made in house
T2 sequence (O15151 2-185): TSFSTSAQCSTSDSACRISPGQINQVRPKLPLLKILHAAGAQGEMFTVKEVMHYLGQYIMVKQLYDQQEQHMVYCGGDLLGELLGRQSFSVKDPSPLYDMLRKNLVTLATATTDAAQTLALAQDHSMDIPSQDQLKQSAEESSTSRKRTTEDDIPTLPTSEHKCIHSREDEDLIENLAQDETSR
Assay type: binding
Method in brief: as §1

Structure (SMILES) | IC50 [µM]
COc1cc2c(cc1OC(C)C)[C@H](c1ccc(Cl)cc1)N(c1ccc([C@](C)(O)C3CCS(=O)(=O)CC3)cc1)C(=O)C2 [Example 167, (S)-1-(4-Chloro-phenyl)-2-{4-[(R)-1-(1,1-dioxo-hexahydro-1-thiopyran-4-yl)-1-hydroxy-ethyl]-phenyl}-7-isopropoxy-6-methoxy-1,4-dihydro-2H-isoquinolin-3-one] | 51.1
COc1cc2c(cc1OC(C)C)[C@H](c1ccc(Cl)cc1)N(c1ccc(C(C)(O)C3CC[S+]([O-])CC3)cc1)C(=O)C2 (stereo partly drawn) [Example 169, (S)-1-(4-Chloro-phenyl)-2-{4-[1-hydroxy-1-(1-oxo-hexahydro-1-thiopyran-4-yl)-ethyl]-phenyl}-7-isopropoxy-6-methoxy-1,4-dihydro-2H-isoquinolin-3-one] | 8.3
COc1cc2c(cc1OC(C)C)[C@H](c1ccc(Cl)cc1)N(c1ccc([C@](C)(O)C3CC[S+]([O-])CC3)cc1)C(=O)C2 (stereo partly drawn) [Example 170, (S)-1-(4-Chloro-phenyl)-2-{4-[(R)-1-hydroxy-1-(1-oxo-hexahydro-thiopyran-4-yl)-ethyl]-phenyl}-7-isopropoxy-6-methoxy-1,4-dihydro-2H-isoquinolin-3-one] | 62.5
COc1cc2c(cc1OC(C)C)[C@H](c1ccc(Cl)cc1)N(c1ccc([C@@](C)(O)C3CC[S+]([O-])CC3)cc1)C(=O)C2 (stereo partly drawn) [Example 171, (S)-1-(4-Chloro-phenyl)-2-{4-[(S)-1-hydroxy-1-(1-oxo-hexahydro-1-thiopyran-4-yl)-ethyl]-phenyl}-7-isopropoxy-6-methoxy-1,4-dihydro-2H-isoquinolin-3-one] | 4.4
COc1cc2c(cc1OC(C)C)[C@H](c1ccc(Cl)cc1)N(c1ccc([C@](C)(O)C3CC4CCC(C3)S4(=O)=O)cc1)C(=O)C2 (stereo partly drawn) [Example 173, (S)-1-(4-Chloro-phenyl)-2-{4-[(R)-1-(8,8-dioxo-8-thia-bicyclo[3.2.1]oct-3-yl)-1-hydroxy-ethyl]-phenyl}-7-isopropoxy-6-methoxy-1,4-dihydro-2H-isoquinolin-3-one] | 41.4
